Source: US20240164385A1, “A SYNERGISTIC PLANT GROWTH STIMULANT COMPOSITION COMPRISING POTASSIUM MONO/DIFORMATE AND METAL ION COMPOUNDS TO ENHANCED METABOLIC ACTIVITIES IN PLANTS” (FERTIS INDIA PVT LTD, priority 2021, published 2024)

What was measured:
Assay type in all cases: in vivo
[1] = test system: paddy grain; test: Estimation of total protein content in paddy grain samples by Lowry method; settings: 660 nm
Description: To the above solution add 5 g of Na2co3 mix well. B. 1% NAK Tartrate (Sodium Potassium Tartrate) Preparation: • Dissolve 1 g of NAK tartrate in 100 ml of volumetric flask and then make up to mark with distilled water. C. […] Dissolve 100 mg of BSA in 100 ml of volumetric flask and then make up to mark with distilled water. Take 6 test tubes then add to the above solution each of 0.1, 0.2, 0.3, 0.4, 0.5, 0.6. Sample Procedure: • i. […] Then filter through whatman filter paper 1 we take test tubes and add 1 ml of each sample. • iii. Add 4.5 ml of reagent 1 and incubate for 10 mins. • iv. After incubation add 0.5 ml of reagent 2 and incubate for 30 mins. • v. Measure the absorbance at 660 nm and plot the standard graph. The Analysis of protein estimation in grain samples is performed by Lowry method with UV Vis Spectro photo meter at 660 nm.

[2] = test system: paddy grain; test: Estimation of total phenol content in paddy grain samples (Folin-Ciocalteu); settings: absorbance at 765 nm
Description: Folin-Ciocalteu's Phenol Reagent Preparation: Take 5 ml of folin ciocalteu's phenol reagent in 50 ml of volumetric flask and then make up to the mark with distilled water 7.5% of Na2CO3 Preparation: Take 7.5 g of Na2CO3 in 100 ml of volumetric flask and then make up to mark with distilled water. Sample Procedure: • i. […] Keep it hot plate for extraction at 95° C. for 1 hr. • iii. After 1 hr filter through whatman filter paper 1 and then make up to 25 ml of volumetric flask with 70% methanol. • iv. […] Incubation for 5 mins. • vi. After 5 mins add 4 ml of 7.5% Na2CO3 mix well then keep it dark place incubation for 1 hr. • vii. Measure the absorbance at 765 nm. • viii. […] Check OD @765 nm.

[3] = test system: paddy grain; test: Micronutrient absorption levels in paddy grains by ICP; settings: paddy grain samples
Description: Analysis of Micronutrients in Paddy Samples by ICP (Inductive Coupled Plasma) Equipment.
• i. 1 gm of grain powder added to 60 ml of perchloric acid and Nitric acid (9:1) digest for overnight. • ii. Heat at 100° C. for 2 hours until vapors change from red to white color. • iii. The resultant solution filtered through Whatman paper and makeup to 100 ml with 1% nitric acid.

Structure (SMILES) | Total Protein content [1] [ppm] | Phenol Content [2] [ppm] | B (Boron) [3] [ppm] | Ca (Calcium) [3] [ppm] | Co (Cobalt) [3] [ppm] | Cu (Copper) [3] [ppm] | Fe (Iron) [3] [ppm] | Mg (Magnesium) [3] [ppm] | Mn (Manganese) [3] [ppm] | Zn (Zinc) [3] [ppm]
O=CO.O=C[O-].[K+] [Potassium diformate] | 0.084 | 17.96 | 35.9 | 399.0 | 14.2 | 35.0 | 397.0 | 678.0 | 50.4 | 66.6
O=C[O-].[K+] [Potassium formate] | 0.086 | 16.69 | 38.4 | 401.7 | 14.2 | 37.0 | 401.0 | 646.0 | 46.5 | 50.6
